Assay results taken from ChEMBL document CHEMBL3779880, “In silico to in vitro screening of hydroxypyridinones as acetylcholinesterase inhibitors” (Bioorg Med Chem Lett, 2016).
pIC50: −log10 of the molar value. Active and inactive are the calls of the source. No cut-off for these calls is given here.

Columns and labels:
Acetylcholinesterase = Acetylcholinesterase (Electrophorus electricus, UniProt O42275)
Description: Inhibition of electric eel AChE using acetylthiocholine iodide as substrate by Ellman's method

[1] = target: Acetylcholinesterase (Electrophorus electricus) (UniProt O42275); assay: Reversible inhibition of electric eel AChE incubated for 1 and 24 hrs by ESI-MS and TLC method
Chain of Acetylcholinesterase (Electrophorus electricus) (O42275 24-633 limits assumed): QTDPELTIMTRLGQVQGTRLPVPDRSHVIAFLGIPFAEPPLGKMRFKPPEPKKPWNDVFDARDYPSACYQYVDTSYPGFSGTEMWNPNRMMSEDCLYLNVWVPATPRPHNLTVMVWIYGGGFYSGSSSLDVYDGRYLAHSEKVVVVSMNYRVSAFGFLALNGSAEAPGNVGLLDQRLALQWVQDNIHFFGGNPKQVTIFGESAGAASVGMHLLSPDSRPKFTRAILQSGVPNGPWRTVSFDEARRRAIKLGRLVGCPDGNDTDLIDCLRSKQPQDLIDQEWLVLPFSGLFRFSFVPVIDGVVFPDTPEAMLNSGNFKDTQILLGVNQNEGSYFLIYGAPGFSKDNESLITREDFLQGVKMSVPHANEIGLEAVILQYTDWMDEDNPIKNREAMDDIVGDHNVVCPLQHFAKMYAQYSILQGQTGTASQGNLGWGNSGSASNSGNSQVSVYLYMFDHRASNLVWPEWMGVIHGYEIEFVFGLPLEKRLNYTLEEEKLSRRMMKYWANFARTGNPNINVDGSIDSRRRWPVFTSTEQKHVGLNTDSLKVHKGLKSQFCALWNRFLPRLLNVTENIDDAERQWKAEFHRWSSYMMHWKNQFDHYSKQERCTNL

[2] = target: Acetylcholinesterase (Electrophorus electricus) (UniProt O42275); assay: Reversible inhibition of electric eel AChE at 92 mM after 5 to 60 mins followed by addition of acetylthiocholine iodide by Ellman's method
[3] = Metal chelating activity assessed as Fe3+/compound complex formation incubated with electric eel AChE for 1 and 24 hrs measured over 60 mins by TLC analysis; assay type: physicochemical
[4] = target: Acetylcholinesterase (Electrophorus electricus) (UniProt O42275); assay: Reversible inhibition of electric eel AChE at 554 mM after 5 to 60 mins followed by addition of acetylthiocholine iodide by Ellman's method

Chain of Acetylcholinesterase (O42275 whole entry): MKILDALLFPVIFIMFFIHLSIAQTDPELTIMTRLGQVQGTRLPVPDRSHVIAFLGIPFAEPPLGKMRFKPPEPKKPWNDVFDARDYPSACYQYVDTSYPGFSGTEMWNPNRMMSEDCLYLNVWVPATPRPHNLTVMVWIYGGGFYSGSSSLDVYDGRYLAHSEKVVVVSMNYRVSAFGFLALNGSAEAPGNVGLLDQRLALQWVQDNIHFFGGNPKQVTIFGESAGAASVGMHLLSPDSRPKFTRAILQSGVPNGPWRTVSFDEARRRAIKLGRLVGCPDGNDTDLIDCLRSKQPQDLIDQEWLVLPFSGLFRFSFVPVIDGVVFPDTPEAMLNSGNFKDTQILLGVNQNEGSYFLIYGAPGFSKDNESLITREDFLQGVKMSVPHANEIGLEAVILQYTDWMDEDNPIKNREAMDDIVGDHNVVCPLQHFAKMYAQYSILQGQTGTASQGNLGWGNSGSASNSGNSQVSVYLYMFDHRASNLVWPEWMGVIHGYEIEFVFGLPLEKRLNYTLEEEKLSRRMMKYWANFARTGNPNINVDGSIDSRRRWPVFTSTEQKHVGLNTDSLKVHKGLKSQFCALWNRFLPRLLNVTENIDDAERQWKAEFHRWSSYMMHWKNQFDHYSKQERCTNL

For Cc1c(O)c(=O)ccn1-c1ccc(OC(=O)N(C)C)cc1, the pIC50 (Acetylcholinesterase) was 3.46, the inhibition [1] was “Active” and the inhibition [2] was “Active”. The Activity [3] was “Active”.
In the case of Cc1ccc(OC(=O)N(C)C)cc1 [P-TOLYL DIMETHYLCARBAMATE], the pIC50 (Acetylcholinesterase) was 2.89.
In the case of Cc1c(OCc2ccc(OC(=O)N(C)C)cc2)c(=O)ccn1-c1ccccc1, the pIC50 (Acetylcholinesterase) was 3.66, the inhibition [1] was “Active” and the inhibition [4] was “Active”.
